The values below come from patent US10590085B2, “Heterocyclic amides as kinase inhibitors” (GlaxoSmithKline Intellectual Property Development Limited, priority 2015, dated 2020).

Series [1] concerns the target T1, RIP1 kinase (Homo sapiens, UniProt Q13546).
T1 sequence (Q13546 1-375 limits assumed): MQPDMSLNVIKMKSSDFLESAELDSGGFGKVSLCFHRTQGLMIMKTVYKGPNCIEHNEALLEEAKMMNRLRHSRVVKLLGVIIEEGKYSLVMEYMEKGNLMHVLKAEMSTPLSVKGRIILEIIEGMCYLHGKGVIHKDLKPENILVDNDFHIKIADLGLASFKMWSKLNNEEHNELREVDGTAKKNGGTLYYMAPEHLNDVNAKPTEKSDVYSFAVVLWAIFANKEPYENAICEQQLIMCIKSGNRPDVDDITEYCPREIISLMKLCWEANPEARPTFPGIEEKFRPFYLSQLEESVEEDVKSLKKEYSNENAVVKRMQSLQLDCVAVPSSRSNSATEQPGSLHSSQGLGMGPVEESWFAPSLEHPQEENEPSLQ
The experiment in a line: fluorescent polarization based binding assay. The settings on record: mean value, minimum of 2 experiments. From the text:
A fluorescent polarization based binding assay was used to asses the activity of the compounds of this invention, the details of which are disclosed in International Patent Appln. No. PCT/IB2014/059004, now, International Patent Appln. Pub.

For series [2], the system named is mouse L929 fibrosarcoma cells. The experiment in a line: necroptosis assay in L929 cells. The series is classed as cell-based. As to conditions: viability by cellular ATP (Cell Titer-Glo), read-out: mean pIC50, inhibition of necrosis in L929 cells (converted). How it is done:
(§1) The efficacy of RIP1 inhibitors can be tested […] in vitro using a human monocytic leukemia U937 or mouse L929 fibrosarcoma cells in a necroptosis assay. As determined using the method described in He, S. et al. 2009. Cell 137(6):1100-1111 and International Patent Appln. No. PCT/IB2014/059004, now, International Patent Appln. Pub.
(§2) Viability was measured by quantitating cellular levels of ATP using the Cell Titer-Glo kit. All data are means±standard deviation of the mean.
Background: ATP-based viability assays read luminescence as a measure of living cells.

Series [3] concerns TNF/zVAD induced temperature loss in mice. The experiment in a line: TNF-driven systemic inflammatory response syndrome model using TNF plus zVAD (temperature loss). Type of series: in vivo, mouse.
In series [4] the test system is human monocytic leukemia U937 cells. Nature of the series: necroptosis assay in U937 cells. The series is classed as cell-based. As to conditions: viability by cellular ATP (Cell Titer-Glo); for IC50: Homo sapiens, U-937, U937 cells, read-out: mean pIC50, inhibition of necrosis in U937 cells (converted). Here is the method: as §1, §2
Series [5] concerns TNF induced temperature loss in mice. Nature of the series: TNF (alone) version of the systemic inflammatory response syndrome model (temperature loss). Type of series: in vivo, mouse. An excerpt:
The model can be run in a long modality (using TNF alone i.v.) which results in the termination of the study in ˜8 hrs (under IACUC guidelines for temperature loss). […] All data are shown as means±standard error of the mean.

The test system of series [6] is RIP1 kinase. As to conditions: ischemic brain injury, retinal ischemia/reperfusion injury, Huntington's disease, renal ischemia reperfusion injury, cisplatin induced kidney injury, traumatic brain injury; cited from earlier work.
The conditions of series [7]: background statement; cited from earlier work.
Setting [8] is: 10 mg/kg PO, pre-dosed 15 minutes before i.v. mouse TNF and zVAD.

Take `O=C(C1CCN(c2ccc(F)cn2)CC1)N1N=CCC1c1ccccc1` (stereo not drawn) [Example 2, (1-(5-fluoropyridin-2-yl)-piperidin-4-yl)(5-phenyl-4,5-dihydro-1H-pyrazol-1-yl)methanone]: the results for the IC50 (on RIP1 kinase [1]; in series [2]) were approximately 39.8 nM and approximately 200 nM, respectively.

A word on the % Inhibition: it is the change of the read-out against control, counted positive when it falls. Take `CC(C)(C)C(=O)N1N=CC[C@H]1c1ccccc1` [Example 13, (S)-2,2-dimethyl-1-(5-phenyl-4,5-dihydro-1H-pyrazol-1-yl)propan-1-one]: the “% Inhibition” value in series [3] (20 mg/kg IP, pre-dosed 15 minutes before i.v. mouse TNF (30 μg/mouse) and zVAD (0.4 mg/mouse)) was determined as 80%. Further, the IC50 in series [2] is approximately 5.01 nM.

Consider `CC(C)(C)C(=O)N1N=CC[C@H]1c1cncc(F)c1` [Example 15, (S)-1-(5-(5-fluoro-pyridin-3-yl)-4,5-dihydro-1H-pyrazol-1-yl)-2,2-dimethyl-propan-1-one], for which the IC50 at RIP1 kinase [1] is approximately 79.4 nM; in series [2], approximately 20 nM. The “mean pIC50, inhibition of necrosis in U937 cells” value (“mean pIC50, inhibition” for short) in series [4] is given as approximately 7.2.

Turning to `O=C(C1CCN(c2ncccn2)CC1)N1N=CC[C@H]1c1cccnc1` [Example 32, (S)-(5-(pyridin-3-yl)-4,5-dihydro-1H-pyrazol-1-yl)(1-(pyrimidin-2-yl)-piperidin-4-yl)-methanone], the IC50 on RIP1 kinase [1] was approximately 31.6 nM; in series [4], approximately 158 nM.

In the case of `CC(C)(C)C(=O)N1N=CC[C@H]1c1ccc(Cl)c(Cl)c1` [Example 40, (S)-1-(5-(3,4-dichlorophenyl)-4,5-dihydro-1H-pyrazol-1-yl)-2,2-dimethyl-propan-1-one], the IC50 at RIP1 kinase [1] is approximately 50.1 nM; in series [2], approximately 15.8 nM.

For the compound `CC(C)(C)C(=O)N1N=CC[C@H]1c1cccc(Cl)c1` [Example 44, (S)-1-(5-(3-chlorophenyl)-4,5-dihydro-1H-pyrazol-1-yl)-2,2-dimethyl propan-1-one], the IC50 in series [2] was approximately 39.8 nM.

For the compound `CC(C)(C)C(=O)N1N=CC[C@H]1c1ccccn1` [Example 48, (S)-2,2-dimethyl-1-(5-(pyridin-2-yl)-4,5-dihydro-1H-pyrazol-1-yl)-propan-1-one], the “% Inhibition” value in series [3] (0.5 mg/kg IP, pre-dosed 15 minutes before i.v. mouse TNF and zVAD) is recorded as 17%; in series [3] (5 mg/kg IP, pre-dosed 15 minutes before i.v. mouse TNF and zVAD), 52%; in series [3] (50 mg/kg IP, pre-dosed 15 minutes before i.v. mouse TNF and zVAD) it was 91%. In addition, in series [2], the IC50 is approximately 200 nM.

With `Cc1ccc([C@@H]2CC=NN2C(=O)C(C)(C)C)cn1` [Example 50, (S)-2,2-dimethyl-1-(5-(6-methylpyridin-3-yl)-4,5-dihydro-1H-pyrazol-1-yl)propan-1-one], the IC50 on RIP1 kinase [1] was approximately 631 nM; in series [4] it was approximately 158 nM; in series [2], approximately 20 nM.

For the compound `CC(C)(C)C(=O)N1N=CC[C@H]1C1CCCCC1` [Example 56, (S)-1-(5-cyclohexyl-4,5-dihydro-1H-pyrazol-1-yl)-2,2-dimethylpropan-1-one], in series [2], the IC50 is approximately 50.1 nM.

On RIP1 kinase [1], `CC(C)(C)C(=O)N1N=CC[C@H]1c1ccc(C(F)(F)F)cc1` [Example 62, (S)-2,2-dimethyl-1-(5-(4-(trifluoromethyl)-phenyl)-4,5-dihydro-1H-pyrazol-1-yl)propan-1-one] gave an IC50 of approximately 79.4 nM. The “mean pIC50, inhibition” value in series [4] is on record as approximately 7.2.

As to `CC(C)(C)C(=O)N1N=CC[C@H]1c1ccc(Cl)cc1` [Example 66, (S)-1-(5-(4-chlorophenyl)-4,5-dihydro-1H-pyrazol-1-yl)-2,2-dimethyl-propan-1-one], in series [3] (0.1 mg/kg IP, pre-dosed 15 minutes before i.v. mouse TNF and zVAD), the “% Inhibition” value is listed as 52%. The IC50 in series [2] is approximately 0.00158 nM.

In the case of `CC(C)(C)C(=O)N1N=CC[C@H]1c1cccc(F)c1` [Example 68, (S)-1-(5-(3-fluorophenyl)-4,5-dihydro-1H-pyrazol-1-yl)-2,2-dimethyl-propan-1-one 2,2,2-trifluoroacetate], in series [2], the IC50 is approximately 5.01 nM.

As for `CC(C)(C)C(=O)N1N=CC[C@H]1c1ccc2[nH]ccc2c1` [Example 91, (S)-1-(5-(1H-indol-5-yl)-4,5-dihydro-1H-pyrazol-1-yl)-2,2-dimethylpropan-1-one], the IC50 is approximately 251 nM at RIP1 kinase [1], approximately 100 nM in series [4] and approximately 251 nM in series [2].

`CC(C)(C)C(=O)N1N=CC[C@H]1c1cccc2[nH]ccc12` [Example 93, (S)-1-(5-(1H-indol-4-yl)-4,5-dihydro-1H-pyrazol-1-yl)-2,2-dimethylpropan-1-one]: the IC50 at RIP1 kinase [1] was approximately 100 nM; in series [2], approximately 79.4 nM. Besides, in series [4], the “mean pIC50, inhibition” value is approximately 7.0.

In the case of `O=C(c1cnsn1)N1CCC(C(=O)N2N=CCC2c2ccccc2)CC1` (stereo not drawn) [Example 155, (1-(1,2,5-thiadiazole-3-carbonyl)piperidin-4-yl)(5-phenyl-4,5-dihydro-1H-pyrazol-1-yl)methanone], the “% Inhibition” value in series [3] (setting [8]) amounted to 49%. Also, the IC50 in series [4] was 1 to 100 nM.

`Cc1ocnc1C(=O)N1CCC(C(=O)N2N=CCC2c2ccccc2)CC1` (stereo not drawn) [Example 158, (5-methyloxazol-4-yl)(4-(5-phenyl-4,5-dihydro-1H-pyrazole-1-carbonyl)piperidin-1-yl)methanone]: in series [3] (setting [8]), the “% Inhibition” value was found to be 77%. Also, the IC50 in series [4] is 1 to 100 nM.

Turning to `O=C(C1CCN(c2ncccn2)CC1)N1N=CC[C@H]1c1ccccc1` [Example 172, (S)-(5-phenyl-4,5-dihydro-1H-pyrazol-1-yl)(1-(pyrimidin-2-yl)piperidin-4-yl)methanone], the IC50 in series [2] was approximately 631 nM.

As to `O=C(N1N=CCC1c1ccccc1)C1(F)CCN(c2ncc(F)cn2)CC1` (stereo not drawn) [Example 189, (4-fluoro-1-(5-fluoropyrimidin-2-yl)piperidin-4-yl)(5-phenyl-4,5-dihydro-1H-pyrazol-1-yl)methanone], the IC50 was 1 to 10 nM at RIP1 kinase [1] and 1 to 100 nM in series [4].

Turning to `CC(=O)N1CCC(C(=O)N2N=CCC2c2ccccc2)CC1` (stereo not drawn) [Example 193, 1-(4-(5-phenyl-4,5-dihydro-1H-pyrazole-1-carbonyl)piperidin-1-yl)ethanone], the “% Inhibition” value in series [3] (140 mg/kg PO, pre-dosed 15 minutes before i.v. mouse TNF and zVAD) amounted to 94%.

In the case of `CC(=O)N1CCC(C(=O)N2N=CC[C@H]2c2cc(F)cc(F)c2)CC1` [Example 203, (S)-1-(4-(5-(3,5-difluorophenyl)-4,5-dihydro-1H-pyrazole-1-carbonyl)piperidin-1-yl)ethanone], the “% Inhibition” value is on record as 9% in series [3] (1 mg/kg PO, pre-dosed 15 minutes before i.v. mouse TNF and zVAD); 46% in series [3] (setting [8]); 88% in series [3] (100 mg/kg PO, pre-dosed 15 minutes before i.v. mouse TNF and zVAD); −14% in series [5] (1 mg/kg orally pre-dosed 15 minutes before i.v. mouse TNF (30 μg/mouse) alone); 45% in series [5] (10 mg/kg orally pre-dosed 15 minutes before i.v. mouse TNF alone); 86% in series [5] (100 mg/kg orally pre-dosed 15 minutes before i.v. mouse TNF alone). Also, the IC50 at RIP1 kinase [1] was approximately 31.6 nM.

`CN1C(=O)C(Cc2c[nH]c3ccccc23)NC1=S` (stereo not drawn) [Necrostatin-1]: the “effectiveness in alleviating disease” value with RIP1 kinase [6] is reported as “effective”. For the same compound, the oral bioavailability entry in series [7] is “poor”.
